How the values were obtained:
[1] = tested on: Liver; settings: rat, in vivo, iv, 1 mg/kg
[2] = tested on: Hepatocyte; experiment: Drug uptake in mouse hepatocytes in presence of phenylalanine; assay type: ADME, cell-based
[3] = tested on: Kidney; experiment: Drug uptake in mouse kidney at 1 mg/kg, iv in presence of 20 mg/kg OATP inhibitor rifampicin; assay type: ADME, organism-based; settings: in vivo
[4] = Distribution volume to the central compartment in Sprague-Dawley rat urine at 1 mg/kg, iv; assay type: ADME, organism-based; design: dose 1 mg/kg, route intravenous; settings: read-out: Vc
[5] = Total clearance in wild-type mouse at 1 mg/kg, iv; assay type: ADME, organism-based; design: dose 1 mg/kg, route intravenous; settings: in vivo
[6] = Drug excretion in Sprague-Dawley rat urine assessed as unchanged compound level at 1 mg/kg, iv for 72 hrs; assay type: ADME, organism-based; design: dose 1 mg/kg, route intravenous; settings: read-out: Drug excretion
[7] = tested on: Hepatocyte; experiment: Drug uptake in mouse hepatocytes at pH 5.5; assay type: ADME, cell-based
[8] = tested on: Hepatocyte; experiment: Drug uptake in mouse hepatocytes in absence of Na+; assay type: ADME, cell-based
[9] = tested on: Hepatocyte; experiment: Drug uptake in mouse hepatocytes in presence of quinidine; assay type: ADME, cell-based
[10] = tested on: Liver; experiment: Drug uptake in mouse liver at 1 mg/kg, iv in presence of 30 umol/kg TPeA; assay type: ADME, organism-based; design: dose 1 mg/kg, route intravenous; settings: in vivo
[11] = tested on: Hepatocyte; experiment: Drug uptake in mouse hepatocytes in presence of tetraethylammonium; assay type: ADME, cell-based
[12] = biological target: T1, Solute carrier organic anion transporter family member 1B3 (Homo sapiens, UniProt Q9NPD5); experiment: Inhibition of OATP1B3-mediated [3H]estradiol 17beta-glucuronide uptake in human OATP1B3 expressing HEK293/PDZK1 cells by scintillation counting; assay type: ADME, cell-based
T1 sequence (Q9NPD5 whole entry): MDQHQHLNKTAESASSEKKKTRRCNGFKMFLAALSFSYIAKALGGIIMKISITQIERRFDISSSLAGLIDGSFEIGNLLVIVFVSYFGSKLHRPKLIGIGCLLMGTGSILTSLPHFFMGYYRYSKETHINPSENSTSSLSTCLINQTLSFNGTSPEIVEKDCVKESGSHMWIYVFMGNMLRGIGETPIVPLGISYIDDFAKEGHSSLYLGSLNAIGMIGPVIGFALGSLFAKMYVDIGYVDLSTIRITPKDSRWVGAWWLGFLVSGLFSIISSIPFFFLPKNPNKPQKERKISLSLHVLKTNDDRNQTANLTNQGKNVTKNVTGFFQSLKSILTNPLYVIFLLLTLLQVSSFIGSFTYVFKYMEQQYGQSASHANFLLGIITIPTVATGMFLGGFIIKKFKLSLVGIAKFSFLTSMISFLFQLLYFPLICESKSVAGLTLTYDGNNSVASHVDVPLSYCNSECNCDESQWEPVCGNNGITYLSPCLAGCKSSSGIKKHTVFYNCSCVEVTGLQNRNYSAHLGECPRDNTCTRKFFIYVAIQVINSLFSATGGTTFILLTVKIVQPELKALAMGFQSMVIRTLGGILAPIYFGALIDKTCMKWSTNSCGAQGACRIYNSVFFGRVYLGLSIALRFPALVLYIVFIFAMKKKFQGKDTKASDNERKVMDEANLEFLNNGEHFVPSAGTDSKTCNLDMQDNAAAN

[13] = tested on: Hepatocyte; experiment: Drug uptake in mouse hepatocytes in presence of carbonyl cyanide-para-trifluoromethoxyphenylhydrazone ATP depletor; assay type: ADME, cell-based
[14] = tested on: Hepatocyte; experiment: Drug uptake in mouse hepatocytes in presence of taurocholate OATP inhibitor; assay type: ADME, cell-based
[15] = tested on: Hepatocyte; experiment: Drug uptake in mouse hepatocytes in presence of verapamil; assay type: ADME, cell-based
[16] = tested on: Hepatocyte; experiment: Drug uptake in mouse hepatocytes at 4 degC; assay type: ADME, cell-based
[17] = Drug excretion in Sprague-Dawley rat bile assessed as unchanged compound level at 1 mg/kg, iv for 72 hrs; assay type: ADME, organism-based; design: dose 1 mg/kg, route intravenous; settings: read-out: Drug excretion
[18] = biological target: T2, Solute carrier organic anion transporter family member 1B1 (Homo sapiens, UniProt Q9Y6L6); experiment: Inhibition of OATP1B1-mediated [3H]estrone-3-sulfate uptake in human OATP1B1 expressing HEK293/PDZK1 cells by scintillation counting; assay type: ADME, cell-based
T2 sequence (Q9Y6L6 whole entry): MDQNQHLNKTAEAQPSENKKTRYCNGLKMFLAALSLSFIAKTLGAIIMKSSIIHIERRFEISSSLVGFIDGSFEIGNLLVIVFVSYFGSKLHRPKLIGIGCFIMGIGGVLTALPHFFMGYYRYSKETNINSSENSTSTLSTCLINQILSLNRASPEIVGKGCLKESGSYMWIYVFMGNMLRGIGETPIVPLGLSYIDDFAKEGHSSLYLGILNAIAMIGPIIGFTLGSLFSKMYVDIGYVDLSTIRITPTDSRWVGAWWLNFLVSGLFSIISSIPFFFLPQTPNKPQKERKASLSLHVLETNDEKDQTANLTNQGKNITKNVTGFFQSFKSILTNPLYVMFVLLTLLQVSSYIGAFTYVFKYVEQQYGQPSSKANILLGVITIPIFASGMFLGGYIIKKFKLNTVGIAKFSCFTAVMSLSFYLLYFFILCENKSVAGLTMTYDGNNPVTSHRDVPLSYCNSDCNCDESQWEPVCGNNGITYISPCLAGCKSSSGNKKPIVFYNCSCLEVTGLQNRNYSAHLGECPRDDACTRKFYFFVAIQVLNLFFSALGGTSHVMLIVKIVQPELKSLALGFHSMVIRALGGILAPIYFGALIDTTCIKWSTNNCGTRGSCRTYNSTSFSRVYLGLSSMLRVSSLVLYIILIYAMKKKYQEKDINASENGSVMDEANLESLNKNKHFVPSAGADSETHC

[19] = tested on: Hepatocyte; experiment: Drug uptake in mouse hepatocytes in presence of rotenone ATP depletor; assay type: ADME, cell-based
[20] = Maximum plasma concentration in mouse at 1 mg/kg, iv; assay type: ADME, organism-based; design: dose 1 mg/kg, route intravenous
[21] = tested on: Liver; experiment: Drug uptake in mouse liver at 1 mg/kg, iv in presence of rifampicin OATP inhibitor; assay type: ADME, organism-based; design: dose 1 mg/kg, route intravenous; settings: in vivo

CLup [1]: 0.38 mL/min/kg | Drug uptake [2]: Not Active | Drug uptake [3]: Active | Vd [4]: 0.0411 L/kg | clearance [5]: 1.29 mL/min/kg | dose excreted at 72 h [6]: < 0.02% | Drug uptake [7]: Active | Drug uptake [8]: Active | Drug uptake [9]: Not Active | Drug uptake [10]: Not Active | Drug uptake [11]: Not Active | Ki [12]: 25.6 µM | inhibition (INH) ([12]; human, hek293/pdzk1): Active | Drug uptake [13]: Not Active | Drug uptake [14]: Not Active | Drug uptake [15]: Not Active | Drug uptake [16]: Not Active | dose excreted at 72 h [17]: 40% | Ki [18]: 14.9 µM | inhibition (INH) ([18]; human, hek293/pdzk1): Active | Drug uptake [19]: Not Active | Cmax [20]: 40 µM | Drug uptake [21]: Not Active
Structure (SMILES): CC1=NN(c2ccc(C)c(C)c2)C(=O)/C1=N\Nc1cccc(-c2cccc(C(=O)O)c2)c1O [ELTROMBOPAG]

From ChEMBL document CHEMBL3526078, “Pharmacokinetics and hepatic uptake of eltrombopag, a novel platelet-increasing agent” (Drug Metab Dispos, 2011)
